Assay [1] in a line: Inhibition of rat liver Alpha-glucosidase II using Glc2Man7GlcNAc2 substrate after 2 hrs by NP-HPLC analysis.
Assay [2] is described as follows: Inhibition of rat liver Alpha-glucosidase II using Glc1Man5GlcNAc1 substrate after 90 mins by NP-HPLC analysis.
Assay [3] relates to HL-60. Put plainly: Inhibition of Alpha-glucosidase II in human HL60 cells assessed as Glc1Man4GlcNAc1 formation using 2-Anthranilic acid labelled NB-DNJ substrate by HPLC analysis. Format: cell-based.
In assay [4] the test system is HL-60. The assay can be described thus: Inhibition of Alpha-glucosidase II in human HL60 cells using 2-Anthranilic acid labelled NB-DNJ substrate after 24 hrs by HPLC analysis relative to control. Format: cell-based.
The species named for assay [5] is Rattus norvegicus. Put plainly: Inhibition of rat liver Alpha-glucosidase II upto 500 uM using Glc2Man7GlcNAc2 substrate after 2 hrs by NP-HPLC analysis.
The species named for assay [6] is Rattus norvegicus. The assay can be described thus: Inhibition of rat liver Alpha-glucosidase II upto 500 uM using Glc1Man5GlcNAc1 substrate after 90 mins by NP-HPLC analysis.
Assay [7] in a line: (§1) Inhibition of rat liver Alpha-glucosidase I using Glc3Man9GlcNAc2 substrate.
The nature of assay [8]: (§2) Inhibition of rat liver Alpha-glucosidase II using p-nitrophenyl alpha D-glucopyranoside substrate.
The subject of assay [9] is HL-60. Put plainly: Inhibition of Alpha-glucosidase I in human HL60 cells using Glc3Man9GlcNAc2 substrate after 24 hrs by HPLC analysis. Format: cell-based.
The species entered for assay [10] is Rattus norvegicus. The description is as §1.
The species entered for assay [11] is Rattus norvegicus. The description is as §2.
Assay [12] can be described thus: Inhibition of rat liver Alpha-glucosidase II.

The source made the active and inactive calls. No cut-off for these calls is given here.

As for `CO[C@H]1O[C@H](CO)[C@@H](O)[C@H](N[C@H]2C=C(CO)[C@@H](O)[C@H](O)[C@H]2O)[C@H]1O`, the IC50 came to 72 µM in [1] and 143 µM in assay [2]. Also, in [3], the inhibition entry is “Active”.

For the compound `CO[C@H]1O[C@H](CN[C@@H]2C=C(CO)[C@@H](O)[C@H](O)[C@H]2O)[C@@H](O)[C@H](O)[C@H]1O`, the inhibition result in assay [4], in [5] and in [6] was “inactive” each time.

Turning to `N[C@H]1C=C(CO)[C@@H](O)[C@H](O)[C@H]1O` [VALIENAMINE], the IC50 stood at 780 µM in [7] and 1000 µM in assay [8]. The inhibition entry in assay [9] is “inactive”.

As to `CO[C@H]1O[C@H](CN[C@H]2C=C(CO)[C@@H](O)[C@H](O)[C@H]2O)[C@@H](O)[C@H](O)[C@H]1O`, the inhibition result in [4], in [5] and in assay [6] was “inactive” each time.

On to `CO[C@H]1O[C@H](CO)[C@@H](O)[C@H](O)[C@H]1N[C@H]1C=C(CO)[C@@H](O)[C@H](O)[C@H]1O`, for which the inhibition entry in assay [10] and in assay [11] was “inactive” throughout.

For `CCCCN1C[C@H](O)[C@@H](O)[C@H](O)[C@H]1CO`, the IC50 in [12] was found to be 4.6 µM.

In the case of `CO[C@H]1O[C@H](CO)[C@@H](O)[C@H](N[C@H]2[C@H](O)[C@H](O)[C@@H](O)[C@H](O)[C@H]2O)[C@H]1O`, the inhibition result in [10] and in assay [11] was “inactive” throughout.

Regarding `CO[C@H]1O[C@H](CO)[C@@H](O)[C@H](N[C@H]2C=C(CO)[C@@H](O)[C@H](O)[C@H]2O)[C@@H]1O`, the inhibition result in [5] is “inactive”. For the same compound, the IC50 in assay [2] amounted to 236 µM. Moreover, the inhibition entry in assay [3] was “Active”.

The values above are taken from ChEMBL document CHEMBL1821593, “Synthesis and α-Glucosidase II inhibitory activity of valienamine pseudodisaccharides relevant to N-glycan biosynthesis” (Bioorg Med Chem Lett, 2011).
